{
  "source": "DBAASP",
  "assay_in_all_cases": "≥ marks a high value that may be exact or a test limit, other limits are often not marked, values filed in µg/mL are converted to µM",
  "key": {"[1]": {"test_system": "Mycobacterium tuberculosis CSU87"}, "[2]": {"test_system": "Mycobacterium tuberculosis H37Rv"}, "[3]": {"test_system": "Acinetobacter baumannii ATCC 19606"}, "[4]": {"test_system": "Candida albicans ATCC 90028"}, "[5]": {"test_system": "Candida parapsilosis ATCC 22019"}, "[6]": {"test_system": "Enterococcus faecalis ATCC 29212"}, "[7]": {"test_system": "Escherichia coli ATCC 25922"}, "[8]": {"test_system": "Klebsiella pneumoniae ATCC 13883"}, "[9]": {"test_system": "Listeria ivanovii"}, "[10]": {"test_system": "Pseudomonas aeruginosa ATCC 27853"}, "[11]": {"test_system": "Saccharomyces cerevisiae"}, "[12]": {"test_system": "Staphylococcus aureus ATCC 25923"}, "[13]": {"test_system": "Staphylococcus aureus ATCC BAA-44"}, "[14]": {"test_system": "Streptococcus pyogenes ATCC 19615"}, "[15]": {"test_system": "Aerococcus viridans"}, "[16]": {"test_system": "Alternaria brassicicola"}, "[17]": {"test_system": "Ascochyta pisi"}, "[18]": {"test_system": "Bacillus megaterium"}, "[19]": {"test_system": "Bacillus subtilis"}, "[20]": {"test_system": "Botrytis cinerea"}, "[21]": {"test_system": "Escherichia coli D22"}, "[22]": {"test_system": "Escherichia coli D31"}, "[23]": {"test_system": "Fusarium culmorum"}, "[24]": {"test_system": "Fusarium haematococcum"}, "[25]": {"test_system": "Micrococcus luteus"}, "[26]": {"test_system": "Neurospora crassa"}, "[27]": {"test_system": "Pediococcus acidilactici"}, "[28]": {"test_system": "Salmonella typhimurium"}, "[29]": {"test_system": "Trichoderma viride"}, "[30]": {"test_system": "Bacillus subtilis BGSC 1A1"}, "[31]": {"test_system": "Klebsiella pneumoniae"}, "[32]": {"test_system": "Mycobacterium tuberculosis mc2-6020"}, "[33]": {"test_system": "Mycobacterium tuberculosis mc2-6230"}, "[34]": {"test_system": "Streptococcus agalactiae"}, "[35]": {"test_system": "Streptococcus mutans"}, "[36]": {"test_system": "Streptococcus pneumoniae ATCC 49619"}, "[37]": {"test_system": "Streptococcus pyogenes"}, "[38]": {"test_system": "Streptococcus mutans UA159"}, "[39]": {"test_system": "Streptococcus sanguinis ATCC 10556"}, "[40]": {"test_system": "Streptococcus sobrinus ATCC 6715"}, "[41]": {"test_system": "Bacillus subtilis PS832"}, "[42]": {"test_system": "Escherichia coli DL7"}, "[43]": {"test_system": "Escherichia coli MG1655 ΔrecA"}, "[44]": {"test_system": "Escherichia coli MG1655"}, "[45]": {"test_system": "Klebsiella aerogenes ATCC 13048"}, "[46]": {"test_system": "Staphylococcus epidermidis ATCC 12228"}},
  "note": "“And” between values parts separate entries of the source, which are not always exact repeats. Equal entries are not always repeated.",
  "data": [
    {"smiles": "CC(C)C[C@H](NC(=O)[C@H](CC(C)C)NC(=O)[C@H](CCCCN)NC(=O)[C@H](CCCCN)NC(=O)[C@H](CC(C)C)NC(=O)[C@H](CC(C)C)NC(=O)[C@@H](N)CS)C(=O)N[C@@H](CCCCN)C(=O)N[C@@H](CCCCN)C(N)=O", "note": "[CLLKKLLKK]", "values": [
      {"measurement": "MIC", "setting": "[1]", "value": "≥ 460", "unit": "µM"},
      {"measurement": "MIC", "setting": "[2]", "value": "≥ 460", "unit": "µM"}
    ]},
    {"smiles": "CC[C@H](C)[C@H](NC(=O)[C@H](CCCN=C(N)N)NC(=O)[C@H](CO)NC(=O)[C@H](CC(C)C)NC(=O)[C@H](Cc1ccccc1)NC(=O)[C@H](CO)NC(=O)[C@@H](N)Cc1ccccc1)C(=O)N[C@@H](Cc1ccccc1)C(N)=O", "note": "[FSFLSRIF]", "values": [
      {"measurement": "MIC", "setting": "[3]", "value": "> 100", "unit": "µM"},
      {"measurement": "MIC", "setting": "[4]", "value": "≥ 100", "unit": "µM"},
      {"measurement": "MIC", "setting": "[5]", "value": "≥ 100", "unit": "µM"},
      {"measurement": "MIC", "setting": "[6]", "value": "> 100", "unit": "µM"},
      {"measurement": "MIC", "setting": "[7]", "value": 100, "unit": "µM"},
      {"measurement": "MIC", "setting": "[8]", "value": "≥ 100", "unit": "µM"},
      {"measurement": "MIC", "setting": "[9]", "value": "≥ 100", "unit": "µM"},
      {"measurement": "MIC", "setting": "[10]", "value": "> 100", "unit": "µM"},
      {"measurement": "MIC", "setting": "[11]", "value": 25, "unit": "µM"},
      {"measurement": "MIC", "setting": "[12]", "value": "> 100", "unit": "µM"},
      {"measurement": "MIC", "setting": "[13]", "value": "≥ 100", "unit": "µM"},
      {"measurement": "MIC", "setting": "[14]", "value": "≥ 50", "unit": "µM"}
    ]},
    {"smiles": "CC[C@H](C)[C@H](NC(=O)[C@@H](NC(=O)[C@@H]1CCCN1C(=O)[C@@H](NC(=O)[C@@H]1CCCN1C(=O)[C@H](CCCCN)NC(=O)[C@H](CCCCN)NC(=O)[C@H](CO)NC(=O)CN)C(C)C)[C@@H](C)CC)C(=O)N[C@@H](Cc1ccc(O)cc1)C(=O)N[C@H]1CSSC[C@@H](C(=O)N[C@@H](CCC(N)=O)C(=O)N[C@@H](CCCN=C(N)N)C(=O)O)NC(=O)[C@H](CCCCN)NC(=O)CNC(=O)[C@H]([C@@H](C)O)NC(=O)[C@H](CCCN=C(N)N)NC(=O)[C@H](CCCN=C(N)N)NC(=O)[C@H](CC(N)=O)NC1=O", "note": "[GSKKPVPIIYCNRRTGKCQR]", "values": [
      {"measurement": "MIC", "setting": "[15]", "value": 3.54, "unit": "µM"},
      {"measurement": "MIC", "setting": "[16]", "value": 7.07, "unit": "µM"},
      {"measurement": "MIC", "setting": "[17]", "value": 14.1, "unit": "µM"},
      {"measurement": "MIC", "setting": "[18]", "value": 3.54, "unit": "µM"},
      {"measurement": "MIC", "setting": "[19]", "value": 28.3, "unit": "µM"},
      {"measurement": "MIC", "setting": "[20]", "value": 7.07, "unit": "µM"},
      {"measurement": "MIC", "setting": "[21]", "value": 28.3, "unit": "µM"},
      {"measurement": "MIC", "setting": "[22]", "value": 28.3, "unit": "µM"},
      {"measurement": "MIC", "setting": "[23]", "value": 14.1, "unit": "µM"},
      {"measurement": "MIC", "setting": "[24]", "value": 3.54, "unit": "µM"},
      {"measurement": "MIC", "setting": "[25]", "value": 3.54, "unit": "µM"},
      {"measurement": "MIC", "setting": "[26]", "value": 7.07, "unit": "µM"},
      {"measurement": "MIC", "setting": "[27]", "value": 28.3, "unit": "µM"},
      {"measurement": "MIC", "setting": "[28]", "value": 28.3, "unit": "µM"},
      {"measurement": "MIC", "setting": "[29]", "value": 14.1, "unit": "µM"}
    ]},
    {"smiles": "CC[C@H](C)[C@H](N)C(=O)N[C@@H](CC(C)C)C(=O)N[C@@H](CO)C(=O)N[C@@H](CC(C)C)C(=O)N[C@@H](CCCN=C(N)N)C(=O)N[C@@H](Cc1c[nH]c2ccccc12)C(=O)N[C@@H](Cc1c[nH]c2ccccc12)C(=O)N[C@@H](CCCN=C(N)N)C(=O)N[C@@H](CCCCN)C(=O)N[C@@H](Cc1c[nH]c2ccccc12)C(=O)N[C@@H](Cc1c[nH]c2ccccc12)C(=O)N[C@@H](CCCCN)C(=O)N[C@@H](CCCCN)C(=O)O", "note": "[ILSLRWWRKWWKK]", "values": [
      {"measurement": "MIC", "setting": "[30]", "value": 4, "unit": "µM"},
      {"measurement": "MIC", "setting": "[7]", "value": 16, "unit": "µM"},
      {"measurement": "MIC", "setting": "[31]", "value": 136, "unit": "µM"},
      {"measurement": "MIC", "setting": "[32]", "value": 16, "unit": "µM"},
      {"measurement": "MIC", "setting": "[33]", "value": "≥ 32", "unit": "µM"},
      {"measurement": "MIC", "setting": "[10]", "value": 32, "unit": "µM"},
      {"measurement": "MIC", "setting": "[12]", "value": 32, "unit": "µM"},
      {"measurement": "MIC", "setting": "[34]", "value": 8, "unit": "µM"},
      {"measurement": "MIC", "setting": "[35]", "value": 4, "unit": "µM"},
      {"measurement": "MIC", "setting": "[36]", "value": 16, "unit": "µM"},
      {"measurement": "MIC", "setting": "[37]", "value": 2, "unit": "µM"}
    ]},
    {"smiles": "NCCCC[C@H](NC(=O)[C@H](CCCCN)NC(=O)[C@H](Cc1ccccc1)NC(=O)[C@H](Cc1ccccc1)NC(=O)[C@H](CCCCN)NC(=O)[C@H](CCCCN)NC(=O)[C@H](Cc1ccccc1)NC(=O)[C@H](Cc1ccccc1)NC(=O)[C@@H](N)CCCCN)C(=O)N[C@@H](Cc1c[nH]c2ccccc12)C(=O)O", "note": "[KFFKKFFKKW]", "values": [
      {"measurement": "MIC", "setting": "[38]", "value": "≥ 357", "unit": "µM"},
      {"measurement": "MIC", "setting": "[39]", "value": "≥ 357", "unit": "µM"},
      {"measurement": "MIC", "setting": "[40]", "value": "≥ 179", "unit": "µM"}
    ]},
    {"smiles": "CC(C)C[C@H](NC(=O)CNC(=O)[C@H](C)NC(=O)[C@@H](N)CCCN=C(N)N)C(=O)N[C@@H](CCC(N)=O)C(=O)N[C@@H](Cc1ccccc1)C(=O)N1CCC[C@H]1C(=O)N[C@H](C(=O)NCC(=O)N[C@@H](CCCN=C(N)N)C(=O)N[C@H](C(=O)N[C@@H](Cc1cnc[nH]1)C(=O)N[C@@H](CCCN=C(N)N)C(=O)N[C@@H](CC(C)C)C(=O)N[C@@H](CC(C)C)C(=O)N[C@@H](CCCN=C(N)N)C(=O)N[C@@H](CCCCN)C(N)=O)C(C)C)C(C)C", "note": "[RAGLQFPVGRVHRLLRK]", "values": [
      {"measurement": "MIC", "setting": "[41]", "value": 8, "unit": "µM"},
      {"measurement": "MIC", "setting": "[42]", "value": "≥ 32 µM and 16 µM"},
      {"measurement": "MIC", "setting": "[43]", "value": "≥ 32", "unit": "µM"},
      {"measurement": "MIC", "setting": "[44]", "value": "≥ 64", "unit": "µM"},
      {"measurement": "MIC", "setting": "[45]", "value": "≥ 64", "unit": "µM"},
      {"measurement": "MIC", "setting": "[2]", "value": "≥ 300", "unit": "µM"},
      {"measurement": "MIC", "setting": "[46]", "value": 8, "unit": "µM"},
      {"measurement": "MIC", "setting": "[36]", "value": "≥ 300", "unit": "µM"}
    ]}
  ]
}
